# Measured values reported in ChEMBL document CHEMBL1201861, “Genomics of Drug Sensitity in Cancer screening data, Wellcome Trust Sanger Institute”.
# pIC50: −log10 of the molar value.
# Legend:
# Test in all cases: cells
# NCI-H1693 = assay type: functional, cell-based, Homo sapiens; conditions: Homo sapiens, NCI-H1693;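 further: growth inhibition of the human cell line, read out with a cell viability assay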
# Description: SANGER: Inhibition of human NCI-H1693 cell growth in a cell viability assay.
# BB49-HNC = assay type: functional, cell-based, Homo sapiens; conditions: Homo sapiens, BB49-HNC;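 further: cell viability assay read-out, reported as inhibition of BB49-HNC cell growth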
# Description: SANGER: Inhibition of human BB49-HNC cell growth in a cell viability assay.
# SW48 = assay type: functional, cell-based, Homo sapiens; conditions: Homo sapiens, SW48;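 further: growth inhibition of SW48 cells, read out with a cell viability assay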
# Description: SANGER: Inhibition of human SW48 cell growth in a cell viability assay.
# ES8 = assay type: functional, cell-based, Homo sapiens; conditions: Homo sapiens, ES8;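 further: growth inhibition of human ES8 cells, read out with a cell viability assay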
# Description: SANGER: Inhibition of human ES8 cell growth in a cell viability assay.
# BB30-HNC = assay type: functional, cell-based, Homo sapiens; conditions: Homo sapiens, BB30-HNC;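 further: growth inhibition of the cultured cell line, read out by a cell viability assay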
# Description: SANGER: Inhibition of human BB30-HNC cell growth in a cell viability assay.
# KYSE-70 cell line = assay type: functional, cell-based, Homo sapiens; conditions: Homo sapiens, KYSE-70;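 further: cell viability assay read-out, with IC50 expressing suppression of KYSE-70 cell growth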
# Description: SANGER: Inhibition of human KYSE-70 cell growth in a cell viability assay.
# YKG-1 = assay type: functional, cell-based, Homo sapiens; conditions: Homo sapiens, YKG-1;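 further: cell growth inhibition, read out with a viability assay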
# Description: SANGER: Inhibition of human YKG-1 cell growth in a cell viability assay.
# EW-13 = assay type: functional, cell-based; conditions: Homo sapiens;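 further: growth inhibition of EW-13 cells, read out with a cell viability assay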
# Description: SANGER: Inhibition of human EW-13 cell growth in a cell viability assay.
# NCI-H526 = assay type: functional, cell-based; conditions: Homo sapiens;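 further: growth inhibition of the human NCI-H526 cell line, measured by a cell viability assay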
# Description: SANGER: Inhibition of human NCI-H526 cell growth in a cell viability assay.
# KE-37 = assay type: functional, cell-based; conditions: Homo sapiens;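 further: growth inhibition of KE-37 cells, read out with a cell viability assay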
# Description: SANGER: Inhibition of human KE-37 cell growth in a cell viability assay.
# DB = assay type: functional, cell-based; conditions: Homo sapiens
# Description: SANGER: Inhibition of human DB cell growth in a cell viability assay.
# ETK-1 = assay type: functional, cell-based, Homo sapiens; conditions: Homo sapiens, ETK-1;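 further: growth inhibition of human ETK-1 cells, read out with a cell viability assay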
# Description: SANGER: Inhibition of human ETK-1 cell growth in a cell viability assay.
# MKN-28 = assay type: functional, cell-based, Homo sapiens; conditions: Homo sapiens, MKN-28;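 further: cell viability assay read-out, IC50 reflects suppression of growth of human MKN-28 cells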
# HuO-3N1 = assay type: functional, cell-based, Homo sapiens; conditions: Homo sapiens, HuO-3N1;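 further: cell viability readout used to measure how strongly compounds suppress proliferation of human HuO-3N1 cells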
# Description: SANGER: Inhibition of human HuO-3N1 cell growth in a cell viability assay.
# 8305C = assay type: functional, cell-based, Homo sapiens; conditions: Homo sapiens, 8305C
# Description: SANGER: Inhibition of human 8305C cell growth in a cell viability assay.
# KYSE-410 = assay type: functional, cell-based, Homo sapiens; conditions: Homo sapiens, KYSE-410;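 further: growth inhibition of KYSE-410 cells, measured through a cell viability readout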
# Description: SANGER: Inhibition of human KYSE-410 cell growth in a cell viability assay.
# KNS-42 = assay type: functional, cell-based, Homo sapiens; conditions: Homo sapiens, KNS-42;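 further: growth inhibition of KNS-42 cells, read out with a cell viability assay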
# Description: SANGER: Inhibition of human KNS-42 cell growth in a cell viability assay.
# NCI-H520 = assay type: functional, cell-based, Homo sapiens; conditions: Homo sapiens, NCI-H520;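 further: growth inhibition of NCI-H520 cells, measured by a cell viability assay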
# Description: SANGER: Inhibition of human NCI-H520 cell growth in a cell viability assay.
# A498 = assay type: functional, cell-based, Homo sapiens; conditions: Homo sapiens, A498;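 further: growth inhibition of human A498 cells, read out with a cell viability assay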
# Description: SANGER: Inhibition of human A498 cell growth in a cell viability assay.
# T98G = assay type: functional, cell-based, Homo sapiens; conditions: Homo sapiens, T98G;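 further: growth inhibition of T98G cells, read out by a cell viability assay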
# Description: SANGER: Inhibition of human T98G cell growth in a cell viability assay.
# COLO-679 = assay type: functional, cell-based, Homo sapiens; conditions: Homo sapiens, COLO-679
# Description: SANGER: Inhibition of human COLO-679 cell growth in a cell viability assay.
# HT-3 = assay type: functional, cell-based, Homo sapiens; conditions: Homo sapiens, HT-3;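 further: growth inhibition measured with a cell viability readout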
# Description: SANGER: Inhibition of human HT-3 cell growth in a cell viability assay.
# CAL-62 = assay type: functional, cell-based, Homo sapiens; conditions: Homo sapiens, CAL-62;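 further: growth inhibition of CAL-62 cells, read out with a cell viability assay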
# Description: SANGER: Inhibition of human CAL-62 cell growth in a cell viability assay.
# ES4 = assay type: functional, cell-based, Homo sapiens; conditions: Homo sapiens, ES4;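 further: growth inhibition of human ES4 cells, read out by a cell viability assay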
# Description: SANGER: Inhibition of human ES4 cell growth in a cell viability assay.
# C3A = assay type: functional, cell-based, Homo sapiens; conditions: Homo sapiens, C3A;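 further: growth inhibition of C3A human cells, quantified with a cell viability readout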
# Description: SANGER: Inhibition of human C3A cell growth in a cell viability assay.
# NB5 = assay type: functional, cell-based, Homo sapiens; conditions: Homo sapiens, NB5;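 further: growth inhibition of NB5 cells, read out as cell viability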
# Description: SANGER: Inhibition of human NB5 cell growth in a cell viability assay.
# Detroit 562 = assay type: functional, cell-based, Homo sapiens; conditions: Homo sapiens, Detroit 562;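 further: growth inhibition of human Detroit 562 cells, read out by a cell viability assay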
# LC-2-ad = assay type: functional, cell-based, Homo sapiens; conditions: Homo sapiens, LC-2-ad;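 further: growth inhibition of human LC-2-ad cells, read out with a cell viability assay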
# Description: SANGER: Inhibition of human LC-2-ad cell growth in a cell viability assay.
# C-33-A = assay type: functional, cell-based, Homo sapiens; conditions: Homo sapiens, C-33-A;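 further: cell viability assay measuring growth inhibition of C-33-A cells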
# Description: SANGER: Inhibition of human C-33-A cell growth in a cell viability assay.
# HO-1-N-1 = assay type: functional, cell-based, Homo sapiens; conditions: Homo sapiens, HO-1-N-1;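 further: growth inhibition of human HO-1-N-1 cells, read out with a cell viability assay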
# Description: SANGER: Inhibition of human HO-1-N-1 cell growth in a cell viability assay.
# NCI-H2126 = assay type: functional, cell-based, Homo sapiens; conditions: Homo sapiens, NCI-H2126;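 further: growth inhibition of the cancer cell line, determined with a cell viability readout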
# Description: SANGER: Inhibition of human NCI-H2126 cell growth in a cell viability assay.
# CHP-212 = assay type: functional, cell-based, Homo sapiens; conditions: Homo sapiens, CHP-212
# Description: SANGER: Inhibition of human CHP-212 cell growth in a cell viability assay.
# MHH-ES-1 = assay type: functional, cell-based, Homo sapiens; conditions: Homo sapiens, MHH-ES-1;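 further: cell growth inhibition measured by a cell viability assay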
# Description: SANGER: Inhibition of human MHH-ES-1 cell growth in a cell viability assay.
# MHH-PREB-1 = assay type: functional, cell-based; conditions: Homo sapiens;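 further: cell viability assay measuring inhibition of proliferation of human MHH-PREB-1 cells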
# Description: SANGER: Inhibition of human MHH-PREB-1 cell growth in a cell viability assay.
# A2780 = assay type: functional, cell-based, Homo sapiens; conditions: Homo sapiens, A2780;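 further: growth inhibition of A2780 cells, read out with a cell viability assay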
# Description: SANGER: Inhibition of human A2780 cell growth in a cell viability assay.
# LOX IMVI = assay type: functional, cell-based; conditions: Homo sapiens
# Description: SANGER: Inhibition of human LOXIMVI cell growth in a cell viability assay.
# CAL-27 = assay type: functional, cell-based, Homo sapiens; conditions: Homo sapiens, CAL-27;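 further: Viability-based readout, IC50 reflecting inhibition of CAL-27 cell growth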
# Description: SANGER: Inhibition of human CAL-27 cell growth in a cell viability assay.
# MZ1-PC = assay type: functional, cell-based, Homo sapiens; conditions: Homo sapiens, MZ1-PC;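 further: cell viability assay measuring growth inhibition of human MZ1-PC cells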
# Description: SANGER: Inhibition of human MZ1-PC cell growth in a cell viability assay.
# DEL = assay type: functional, cell-based; conditions: Homo sapiens;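 further: growth inhibition of the human DEL cell line, read out with a cell viability assay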
# Description: SANGER: Inhibition of human DEL cell growth in a cell viability assay.
# VM-CUB-1 = assay type: functional, cell-based; conditions: Homo sapiens;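 further: cell viability assay measuring growth inhibition of the human VM-CUB-1 cell line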
# Description: SANGER: Inhibition of human VM-CUB-1 cell growth in a cell viability assay.
# BHT-101 = assay type: functional, cell-based, Homo sapiens; conditions: Homo sapiens, BHT-101
# SBC-1 = assay type: functional, cell-based; conditions: Homo sapiens;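 further: cell viability assay measuring growth inhibition of the SBC-1 cell line, IC50 being the concentration that halves growth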
# Description: SANGER: Inhibition of human SBC-1 cell growth in a cell viability assay.
# SW-620 = assay type: functional, cell-based, Homo sapiens; conditions: Homo sapiens, SW-620;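 further: growth inhibition of human SW-620 cells, measured by a cell viability assay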
# Description: SANGER: Inhibition of human SW620 cell growth in a cell viability assay.
# LU-99A = assay type: functional, cell-based, Homo sapiens; conditions: Homo sapiens, LU-99A;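 further: growth inhibition of LU-99A cells, read out with a cell viability assay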
# Description: SANGER: Inhibition of human LU-99A cell growth in a cell viability assay.
# SW13 = assay type: functional, cell-based, Homo sapiens; conditions: Homo sapiens, SW13;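 further: IC50 is inhibition of SW13 cell growth, read out with a cell viability assay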
# Description: SANGER: Inhibition of human SW13 cell growth in a cell viability assay.
# SK-MEL-24 = assay type: functional, cell-based; conditions: Homo sapiens;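 further: growth inhibition read out by a cell viability assay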
# Description: SANGER: Inhibition of human SK-MEL-24 cell growth in a cell viability assay.
# CAL-51 = assay type: functional, cell-based, Homo sapiens; conditions: Homo sapiens, CAL-51;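 further: human CAL-51 cell line, growth inhibition read out via a cell viability assay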
# Description: SANGER: Inhibition of human CAL-51 cell growth in a cell viability assay.
# IST-MEL1 = assay type: functional, cell-based, Homo sapiens; conditions: Homo sapiens, IST-MEL1;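 further: growth inhibition of the cell line, read out with a cell viability assay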
# Description: SANGER: Inhibition of human IST-MEL1 cell growth in a cell viability assay.
# MEG-01 = assay type: functional, cell-based; conditions: Homo sapiens;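 further: growth inhibition of MEG-01 cells, read out by a cell viability assay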
# Description: SANGER: Inhibition of human MEG-01 cell growth in a cell viability assay.
# LS-513 = assay type: functional, cell-based, Homo sapiens; conditions: Homo sapiens, LS-513
# Description: SANGER: Inhibition of human LS-513 cell growth in a cell viability assay.
# KLE = assay type: functional, cell-based, Homo sapiens; conditions: Homo sapiens, KLE;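 further: growth inhibition of human KLE cells, read out with a cell viability assay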
# Description: SANGER: Inhibition of human KLE cell growth in a cell viability assay.
# SNU-449 = assay type: functional, cell-based, Homo sapiens; conditions: Homo sapiens, SNU-449
# Description: SANGER: Inhibition of human SNU-449 cell growth in a cell viability assay.
smiles,measurement,setting,value
C=CCc1cccc(/C=N/NC(=O)CN2CCN(Cc3ccccc3)CC2)c1O [PAC-1],pIC50,NCI-H1693,< 5.59
same,pIC50,BB49-HNC,< 5.59
same,pIC50,SW48,< 5.59
same,pIC50,ES8,< 5.59
same,pIC50,BB30-HNC,< 5.59
same,pIC50,KYSE-70 cell line,< 5.59
same,pIC50,YKG-1,< 5.59
same,pIC50,EW-13,< 5.59
same,pIC50,NCI-H526,< 5.59
same,pIC50,KE-37,6.67
same,pIC50,DB,< 5.59
same,pIC50,ETK-1,5.61
same,pIC50,MKN-28,< 5.59
same,pIC50,HuO-3N1,< 5.59
same,pIC50,8305C,< 5.59
same,pIC50,KYSE-410,5.93
same,pIC50,KNS-42,< 5.59
same,pIC50,NCI-H520,< 5.59
same,pIC50,A498,< 5.59
same,pIC50,T98G,< 5.59
same,pIC50,COLO-679,6.10
same,pIC50,HT-3,< 5.59
same,pIC50,CAL-62,< 5.59
same,pIC50,ES4,< 5.59
same,pIC50,C3A,< 5.59
same,pIC50,NB5,< 5.59
same,pIC50,Detroit 562,< 5.59
same,pIC50,LC-2-ad,6.05
same,pIC50,C-33-A,< 5.59
same,pIC50,HO-1-N-1,< 5.59
same,pIC50,NCI-H2126,< 5.59
same,pIC50,CHP-212,< 5.59
same,pIC50,MHH-ES-1,< 5.59
same,pIC50,MHH-PREB-1,< 5.59
same,pIC50,A2780,< 5.59
same,pIC50,LOX IMVI,< 5.59
same,pIC50,CAL-27,< 5.59
same,pIC50,MZ1-PC,< 5.59
same,pIC50,DEL,< 5.59
same,pIC50,VM-CUB-1,< 5.59
same,pIC50,BHT-101,< 5.59
same,pIC50,SBC-1,< 5.59
same,pIC50,SW-620,< 5.59
same,pIC50,LU-99A,< 5.59
same,pIC50,SW13,< 5.59
same,pIC50,SK-MEL-24,< 5.59
same,pIC50,CAL-51,< 5.59
same,pIC50,IST-MEL1,< 5.59
same,pIC50,MEG-01,< 5.59
same,pIC50,LS-513,< 5.59
same,pIC50,KLE,< 5.59
same,pIC50,SNU-449,< 5.59
Cc1ccc(Nc2nccc(N(C)c3ccc4c(C)n(C)nc4c3)n2)cc1S(N)(=O)=O [PAZOPANIB],pIC50,NCI-H1693,< 5.10
same,pIC50,BB49-HNC,< 5.10
same,pIC50,SW48,< 5.10
same,pIC50,ES8,< 5.10
same,pIC50,BB30-HNC,< 5.10
same,pIC50,KYSE-70 cell line,< 5.10
same,pIC50,YKG-1,< 5.10
same,pIC50,EW-13,< 5.10
same,pIC50,NCI-H526,< 5.10
same,pIC50,KE-37,< 5.10
same,pIC50,DB,< 5.10
same,pIC50,ETK-1,< 5.10
same,pIC50,MKN-28,< 5.10
same,pIC50,HuO-3N1,< 5.10
same,pIC50,8305C,< 5.10
same,pIC50,KYSE-410,< 5.10
same,pIC50,KNS-42,< 5.10
same,pIC50,NCI-H520,5.24
same,pIC50,A498,< 5.10
same,pIC50,T98G,< 5.10
same,pIC50,COLO-679,< 5.10
same,pIC50,HT-3,< 5.10
same,pIC50,CAL-62,< 5.10
same,pIC50,ES4,< 5.10
same,pIC50,C3A,< 5.10
same,pIC50,NB5,< 5.10
same,pIC50,Detroit 562,< 5.10
same,pIC50,LC-2-ad,< 5.10
same,pIC50,C-33-A,< 5.10
same,pIC50,HO-1-N-1,< 5.10
same,pIC50,NCI-H2126,< 5.10
same,pIC50,CHP-212,< 5.10
same,pIC50,MHH-ES-1,< 5.10
same,pIC50,MHH-PREB-1,< 5.10
same,pIC50,A2780,< 5.10
same,pIC50,LOX IMVI,< 5.10
same,pIC50,CAL-27,< 5.10
same,pIC50,MZ1-PC,< 5.10
same,pIC50,DEL,< 5.10
same,pIC50,VM-CUB-1,< 5.10
same,pIC50,BHT-101,< 5.10
same,pIC50,SBC-1,< 5.10
same,pIC50,SW-620,< 5.10
same,pIC50,LU-99A,< 5.10
same,pIC50,SW13,< 5.10
same,pIC50,SK-MEL-24,< 5.10
same,pIC50,CAL-51,< 5.10
same,pIC50,IST-MEL1,< 5.10
same,pIC50,MEG-01,< 5.10
same,pIC50,LS-513,< 5.10
same,pIC50,KLE,< 5.10
same,pIC50,SNU-449,< 5.10
